# Assay results published in patent US5516803A, “Composition comprising a tramadol material and a non-steroidal anti-inflammatory drug” (priority 1995, dated 1996).
# How the values were obtained:
# [1] = cited from earlier work; for intensity of pain relieved / tolerance, addiction and toxicity: compared with opioid analgesics; for opioid side effects: Goodman and Gilman's, 8th edition
# [2] = system: acetylcholine-induced abdominal constriction; test: prevention of acetylcholine-induced abdominal constriction in mice (analgesic activity, oral); assay type: in vivo, male CD1 mice
# Protocol: […]. The mice were all dosed orally with tramadol hydrochloride (calculated as the base), which was completely dissolved in distilled water, and ibuprofen (calculated as the base), which was completely dissolved in distilled water or in distilled water containing 2% by volume of Tween 80 containing 100% polysorbate 80. The dosing volume was 10 mL/kg.
# The procedure used in detecting and comparing the analgesic activity of different classes of analgesic drugs for which there is a good correlation with human efficacy is the prevention of acetylcholine-induced abdominal constriction in mice (H. Collier et al., Br. J. Pharmacol., 32, 295 (1968)).
# Mice, incubated with various doses of tramadol hydrochloride alone, ibuprofen alone, combined doses of tramadol hydrochloride and ibuprofen, or vehicle such as distilled water, or distilled water containing 2% by volume of Tween 80, were injected intraperitoneally with a challenge dose of acetylcholine bromide. […]. The mice were observed 10 minutes for the presence or absence of the abdominal constriction response beginning immediately after receiving the acetylcholine dose, which was 30 minutes after receiving the oral administration of tramadol hydrochloride,ibuprofen, combined doses of tramadol hydrochloride and ibuprofen, or vehicle. Each mouse was used only once.
# The analysis of possible superadditivity for the compositions at each fixed ratio was determined as disclosed by R. J. Tallarida et al., Life Sci., 45, 947 (1989). This procedure involved the determination of the total amount in the mixture that is required to produce a specified level of effect, such as 50% (ED50mix), and the corresponding total amount that would be expected under simple additivity (ED50add). Where it was established that ED50mix <ED50add for a specific fixed-ratio, then that composition ratio was superadditive. Both the quantities ED50mix and ED50add were random variables; ED50mix was estimated from the dose-response curve for a specific fixed-ratio; ED50add was obtained by combining the ED50 estimates for the two drugs under additivity. ED50mix was then compared to ED50add via a Student's t-test. […]. The interaction between tramadol and ibuprofen was determined at precise dosage ratios of tramadol hydrochloride and ibuprofen. Multiple (typically 4-6) coded doses of each selected combination were studied for analgesic effectiveness after 30 minutes using an experimental design which permitted the complete randomization of the separate dosage forms tested.
# In FIG. 1, the diagonal line joining the ED50 values of the two drugs given separately represents the simple additivity of effects at different component ratios. The dotted lines adjacent to the diagonal line define the 95% confidence interval. ED50 values falling under the curve (between the line and the origin) indicate superadditivity, i.e., unexpected enhancement of effects. The diagonal dashed lines radiating from the origin represent the dose ratios of ibuprofen to tramadol hydrochloride used in mice receiving the combined drug dosages. The bars through the ED50 points for the tramadol and ibuprofen composition represent the 95% confidence intervals of the ED50 value. […]
structure (smiles),measurement,setting,value
CC(=O)Oc1ccccc1C(=O)O [aspirin],intensity of pain relieved,[1],only useful in relieving pain of moderate intensity
same,"tolerance, addiction and toxicity",[1],"not subject to the tolerance, addiction and toxicity of the opioid analgesics"
"CC(C)Cc1ccc(C(C)C(=O)O)cc1 (stereo not drawn) [ibuprofen, 2-(p-isobutylphenyl)propionic acid]",ED50,"[2]; Mus musculus, 0.5 h, drug alone, oral, 30 min, range in parentheses 95% CI",33.5 mg/kg
same,analgesia,"[2]; tramadol 0, ibuprofen 10 mg/kg, p.o., 30 min",2/15
same,analgesia,"[2]; tramadol 0, ibuprofen 20 mg/kg, p.o., 30 min",4/15
same,analgesia,"[2]; tramadol 0, ibuprofen 40 mg/kg, p.o., 30 min",8/15
same,analgesia,"[2]; tramadol 0, ibuprofen 80 mg/kg, p.o., 30 min",13/15
same,analgesia,"[2]; tramadol 0, ibuprofen 160 mg/kg, p.o., 30 min",14/15
same,intensity of pain relieved,[1],only useful in relieving pain of moderate intensity
same,"tolerance, addiction and toxicity",[1],"not subject to the tolerance, addiction and toxicity of the opioid analgesics"
COc1ccc2c3c1O[C@H]1C(=O)CC[C@@]4(O)[C@@H](C2)N(C)CC[C@]314 [oxycodone],opioid side effects,[1],"respiratory depression, constipation, tolerance and abuse liability"
COc1ccc2c3c1O[C@H]1C(=O)CC[C@H]4[C@@H](C2)N(C)CC[C@]314 [hydrocodone],opioid side effects,[1],"respiratory depression, constipation, tolerance and abuse liability"
"COc1cccc(C2(O)CCCCC2CN(C)C)c1 (single isomer, unassigned) [tramadol, (1R, 2R or 1S, 2S)-2-[(dimethylamino)methyl]-1-(3-methoxyphenyl)cyclohexanol]",ED50 value for drug alone,"[2]; drug alone, oral, 30 min, range in parentheses 95% CI",5.5(4.8-6.4) mg/kg
same,"ED50 at 30 min (95% CI's), Tramadol","[2]; p.o., tramadol component (calculated as base), Table I",5.5 mg/kg
COc1ccc2c3c1O[C@H]1[C@@H](O)C=C[C@H]4[C@@H](C2)N(C)CC[C@@]341 [codeine],opioid side effects,[1],"respiratory depression, constipation, tolerance and abuse liability"
